Test results reported in patent US4937243A, “Thiol carboxylic acid derivatives and their use as colagenase inhibitors” (Beecham Group p.l.c., priority 1986, dated 1990).

What follows are compounds tested against T1, purified rabbit bone collagenase (Oryctolagus cuniculus, UniProt P13943) (assay: Collagenase inhibitor assay (14C-acetylated rat skin Type I collagen as substrate)). Conditions: 5-15 min preincubation at 37° C., 37° C. overnight, read-out: IC50 (amount of compound which inhibits a known amount of enzyme by 50%).
T1 construct: from tissue; host or cells: rabbit bone
T1 sequence (P13943 99-468): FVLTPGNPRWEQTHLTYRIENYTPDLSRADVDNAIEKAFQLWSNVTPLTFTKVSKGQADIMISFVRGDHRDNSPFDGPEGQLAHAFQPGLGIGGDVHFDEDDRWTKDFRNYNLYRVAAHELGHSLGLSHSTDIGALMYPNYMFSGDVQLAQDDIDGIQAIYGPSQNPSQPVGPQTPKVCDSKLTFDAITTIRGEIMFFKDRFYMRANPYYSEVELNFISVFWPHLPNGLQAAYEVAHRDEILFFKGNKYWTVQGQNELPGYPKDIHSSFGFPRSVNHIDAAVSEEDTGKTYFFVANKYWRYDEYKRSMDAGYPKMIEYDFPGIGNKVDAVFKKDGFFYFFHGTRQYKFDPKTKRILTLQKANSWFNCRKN
Assay type: biochemical
Method: The test is performed essentially as in Cawston and Barrett Anal. Biochem. 99, 340-345 (1979). Compounds for testing are dissolved in methanol and added to purified rabbit bone collagenase in buffer. After a 5-15 min incubation at 37° C., the assay tubes are cooled to 4° C. and ^14 C-acetylated rat skin Type I collagen is added. The assay tubes are incubated at 37° C. overnight. The ^14 C-collagen forms insoluble fibrils which are the substrate for the enzyme.
To terminate the assay, the assay tubes are spun at 12000 rpm for 15 min. Undigested ^14 C-collagen is pelleted, digested ^14 C-collagen is found as soluble peptides in the supernatant. A sample of the supernatant is taken for liquid scintillation counting.

| IC50 | Compound |
| --- | --- |
| 0.1 µM | CNC(=O)[C@H](Cc1ccc(OC)cc1)NC(=O)C(CC(C)C)C(S)CC(=O)OC (mixture of isomers) [2 mixture of diastereoisomers] |
| 0.0039 to 0.0064 µM | CNC(=O)[C@H](Cc1ccc(OC)cc1)NC(=O)C(CC(C)C)C(S)CC(=O)OC (single isomer, unassigned) [2 A] |
| 0.072 µM | CNC(=O)[C@H](Cc1ccc(OC)cc1)NC(=O)C(CC(C)C)C(S)CC(=O)OC (single isomer, unassigned) [2 B] |
| 0.031 µM | CNC(=O)[C@H](Cc1ccc(OC)cc1)NC(=O)C(CC(C)C)C(S)CC(=O)OCc1ccccc1 (single isomer, unassigned) [4 A] |
| 0.27 µM | CNC(=O)[C@H](Cc1ccc(OC)cc1)NC(=O)C(CC(C)C)C(S)CC(=O)OCc1ccccc1 (single isomer, unassigned) [4 B] |
| 0.23 µM | CNC(=O)[C@H](Cc1ccc(OC)cc1)NC(=O)C(CC(C)C)C(S)CC(=O)OCc1ccccc1 (single isomer, unassigned) [4 C] |
| 12.6 µM | CNC(=O)[C@H](Cc1ccc(OC)cc1)NC(=O)C(CC(C)C)C(S)CC(=O)OCc1ccccc1 (single isomer, unassigned) [4 D] |
| 0.0047 to 0.014 µM | CNC(=O)CC(S)C(CC(C)C)C(=O)N[C@@H](Cc1ccc(OC)cc1)C(=O)NC (single isomer, unassigned) [8 A] |
| 0.0083 µM | CNC(=O)[C@H](Cc1ccccc1)NC(=O)C(CC(C)C)C(S)CC(=O)OC (single isomer, unassigned) [10 A] |
